Data taken from patent publication US20050165011A1, “Benzoxazine and benzoxazinone substituted triazoles” (priority 2002, published 2005).

Tested on: not given
Assay: not given
Conditions: not given

| SMILES | melting point [°C] |
| --- | --- |
| O=C1COc2ccc(-c3nn[nH]c3-c3ccccn3)cc2N1 | 256 |
| Cc1cccc(-c2[nH]nnc2-c2ccc3c(c2)N(CCN2CCOCC2)C(=O)CO3)n1 | 150 |
| CCN1C(=O)COc2ccc(-c3nn[nH]c3-c3cccc(C)n3)cc21 | 187 |

The remaining lines, values ahead:

| melting point [°C] | SMILES |
| --- | --- |
| 224 | Cc1cccc(-c2[nH]nnc2-c2ccc3c(c2)NC(=O)CO3)n1 |
| 220 | O=C1COc2ccc(-c3nn[nH]c3-c3cccc(Cl)c3)cc2N1 |

Tested on: TGF-β signaling (PAl-1 promoter luciferase reporter, HepG2 cells)
Assay: Cellular transcriptional assay (PAI-1 promoter luciferase reporter in HepG2 cells exposed to TGF-β)
Assay type: cell-based
Conditions: 500 μM CPO in the presence of TGF-β; toxicity control
Procedure: Assay 1 (Cellular Transcriptional Assay)
The assay was performed in HepG2 cells stably transfected with the PAl-1 promoter (known to be a strong TGF-β responsive promoter) linked to a luciferase (firefly) reporter gene. The compounds were selected on their ability to inhibit luciferase activity in cells exposed to TGF-β. In addition, cells were transfected with a second luciferase (Renilla) gene which was not driven by a TGF-β responsive promoter and was used as a toxicity control.
96 well microplates were seeded, using a multidrop apparatus, with the stably transfected cell line at a concentration of 35000 cells per well in 200 μl of serum-containing medium. These plates were placed in a cell incubator.
18 to 24 hours later (Day 2), cell-incubation procedure was launched. […] Each well contained only one candidate compound and its effect on the PAl-1 promoter was monitored.
Columns 11 and 12 were employed as controls. […] Column 11 was used to determine the ‘reference TGF-β induced firefly luciferase value’ against which values measured in the test wells (to quantify inhibitory activity) were compared. […]
12 to 18 hours later (day 3), the luciferase quantification procedure was launched. […] Following agitation (15 to 30 mins), luciferase activities of the plates were read in a dual-injector luminometer (BMG lumistar). […]

| SMILES | firefly and renilla luciferase activities relative to TGF-β only wells |
| --- | --- |
| O=C1C=CCC1 [CPO, Cyclopentenone] | around 50% |
